In patent US20120065173A1 (priority 2006, published 2012):

Target: T1, recombinant human GR (Homo sapiens, UniProt P04150)
T1 construct: purchased Panvera/Invitrogen P2812 (kit P2893)
T1 sequence (P04150 1-777): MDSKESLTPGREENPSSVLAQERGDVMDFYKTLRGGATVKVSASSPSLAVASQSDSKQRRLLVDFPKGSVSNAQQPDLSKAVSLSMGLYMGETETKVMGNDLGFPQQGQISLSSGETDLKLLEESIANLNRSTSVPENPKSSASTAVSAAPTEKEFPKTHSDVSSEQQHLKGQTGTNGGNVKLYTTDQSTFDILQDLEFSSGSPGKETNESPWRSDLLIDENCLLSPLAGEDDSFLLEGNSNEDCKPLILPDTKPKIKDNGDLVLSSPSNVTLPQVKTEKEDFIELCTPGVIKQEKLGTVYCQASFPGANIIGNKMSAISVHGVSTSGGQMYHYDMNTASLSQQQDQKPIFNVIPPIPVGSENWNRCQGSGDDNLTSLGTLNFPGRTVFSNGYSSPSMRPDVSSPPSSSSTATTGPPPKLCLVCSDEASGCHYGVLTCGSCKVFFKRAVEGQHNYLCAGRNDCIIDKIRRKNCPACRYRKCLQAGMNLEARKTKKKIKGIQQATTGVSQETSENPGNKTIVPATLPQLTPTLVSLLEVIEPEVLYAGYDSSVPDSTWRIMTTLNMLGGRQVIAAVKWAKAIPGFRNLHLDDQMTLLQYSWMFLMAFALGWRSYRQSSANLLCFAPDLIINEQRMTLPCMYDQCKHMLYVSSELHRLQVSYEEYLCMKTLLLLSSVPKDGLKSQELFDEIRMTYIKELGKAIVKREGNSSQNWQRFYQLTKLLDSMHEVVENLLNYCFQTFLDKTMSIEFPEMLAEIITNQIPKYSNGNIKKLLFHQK
Experiment: Human Glucocorticoid Receptor (GR) Assay, fluorescence polarization (GRhuFL_FP_v2)
Type: binding
Conditions: GS Red tracer, 2 hours at room temperature, 100% control 10 μM Dexamethasone
Experimental: Human Glucocorticoid Receptor (GR) Assay
The assay is based on a commercial kit from Panvera/Invitrogen (Part number P2893). The assay technology is fluorescence polarization. […] The GR and Stabilizing Peptide reagents are stored at −70° C. while the GS Red is stored at −20° C. Also included in the kit are 1M DTT (Panvera, Part number P2325, stored at −20° C.) and GR Screening buffer 10× (Panvera, Part number P2814, stored at −70° C. initially but once thawed stored at room temperature). Avoid repeated freeze/thaws for all reagents. The GR Screening buffer 10× comprises 100 mM potassium phosphate, 200 mM sodium molybdate, 1 mM EDTA and 20% DMSO.
0% control was 100% DMSO and 100% control was 10 μM Dexamethasone. Background solution (8 μL; assay buffer 10×, Stabilizing Peptide, DTT and ice cold MQ water) was added to the background wells. GS Red solution (7 μL; assay buffer 10×, Stabilizing Peptide, DTT, GS Red and ice cold water) was added to all wells except background wells. GR solution (7 μL; assay buffer 10×, Stabilizing Peptide, DTT, GR and ice cold water) was added to all wells. The plate was sealed and incubated in a dark at room temperature for 2 hours.

| IC50 [nM] | Compound |
| --- | --- |
| 3.6 | C[C@H](NS(=O)(=O)C1CC1)[C@H](Oc1ccc2c(cnn2-c2ccc(F)cc2)c1)c1cnc2ccccc2c1 [Example 42, N-((1R,2S)-1-(1-(4-fluorophenyl)-1H-indazol-5-yloxy)-1-(quinolin-3-yl)propan-2-yl)cyclopropanesulfonamide] |
| 2.3 | C[C@H](NS(=O)(=O)C1CC1)[C@H](Oc1ccc2c(cnn2-c2ccc(F)cc2)c1)c1ccc2c(c1)OCCO2 [Example 43, N-((1R,2S)-1-(2,3-dihydrobenzo[b][1,4]dioxin-6-yl)-1-(1-(4-fluorophenyl)-1H-indazol-5-yloxy)propan-2-yl)cyclopropanesulfonamide] |
